# Experimental data reported in patent US20160324875A1, “CUTANEOUS COMPOSITION COMPRISING VITAMIN D ANALOGUE AND A MIXTURE OF SOLVENT AND SURFACTANTS” (LEO PHARMA A/S, priority 2009, published 2016).
# Entries after “also recorded” stand apart in the source; their conditions may differ.
# Columns and labels:
# [1] = skin diffusion experiment (Franz diffusion cells); type: in vitro ADME, pig; conditions: from a composition of the invention, 4 mg/cm^2, 21 hours, FIG. 3, % of applied dose
# Procedure: To investigate the skin penetration and permeation of calcipotriol from compositions of the invention, a skin diffusion experiment was conducted. Full thickness skin from pig ears was used in the study. The ears were kept frozen at -18° C. before use. On the day prior to the experiment the ears were placed in a refrigerator (5±3° C.) for slow defrosting. On the day of the experiment, the hairs were removed using a veterinary hair trimmer. The skin was cleaned for subcutaneous fat using a scalpel and two pieces of skin were cut from each ear and mounted on Franz diffusion cells in a balanced order.
# Static Franz-type diffusion cells with an available diffusion area of 3.14 cm^2 and receptor volumes ranging from 8.6 to 11.1 ml were used in substantially the manner described by T. J. Franz, “The finite dose technique as a valid in vitro model for the study of percutaneous absorption in man”, in Current Problems in Dermatology, 1978, J. W. H. Mall (Ed.), Karger, Basel, pp. 58-68. The specific volume was measured and registered for each cell. A magnetic bar was placed in the receptor compartment of each cell. […]
# The in vitro skin permeation of each test composition was tested in 6 replicates (i.e. n=6). […] A glass spatula was used for the application, and the residual amount of the composition was determined so as to give the amount of the composition actually applied on the skin. […]
# [2] = tested on: gene encoding cathelicidin; assay: induction of the gene encoding cathelicidin in reconstructed human epidermis (qPCR); type: cell-based; conditions: glycerol 5% vs 10% or 15% by weight in calcipotriol composition
# From the text: In psoriasis, the level of cathelicidin is increased in lesional skin of psoriasis patients. […] This finding has been utilized to develop an assay in which the uptake and biological activity of calcipotriol in human keratinocytes from the tested compositions has been determined by measuring the level of induction of the gene encoding cathelicidin.
# In the assay, composition 1A prepared as described in Example 1 above was applied topically in triplicate on reconstructed human epidermis consisting of normal human keratinocytes cultured for 12 days on 0.5 cm^2 polycarbonate filters (available from SkinEthic® Laboratories, Nice, France) in an amount of […]. The tissue was treated for two days followed by separation of the epidermis from the polycarbonate filter and snap-frozen in liquid nitrogen. RNA was extracted from the cells and cDNA synthesized by conventional procedures. Quantitative real-time PCR (qPCR) was then performed using the following assays from Applied Biosystems: CAMP Hs0018038_ml and GAPDH Hs99999905_ml. The expression levels of cathelicidin were normalized to GAPDH and a relative quantification was made by comparison with Daivonex® ointment.
# IL-la = assay: release of IL-1a from calcipotriol ointment containing glycerol; conditions: 5%, 10%, 15% by weight of glycerol in a calcipotriol ointment
# [3] = one study, Hannuksela et al. 1975; cited from earlier work
smiles,measurement,setting,value
"C=C1/C(=C\C=C2/CCC[C@]3(C)[C@@H]([C@H](C)/C=C/[C@@H](O)C4CC4)CC[C@@H]23)C[C@@H](O)C[C@@H]1O [calcipotriol, Calcipotriol]",calcipotriol penetrated into viable layers of the skin (dermis and epidermis),[1],a significant amount
same,calcipotriol permeated through the skin into the receptor fluid,[1],Very little; also recorded: only a minor amount
OCC(O)CO [glycerol],expression of cathelicidin,[2],increased with a low amount of glycerol
same,release of IL-la,IL-la,reduce the release of IL-la in a dose-dependent manner
CC(O)CO (centres unmarked) [propylene glycol],number of irritant reactions,[3],12.5%
